Laboratory results taken from patent US6146824A, “Method for determining tumor cell adhesion” (Hadasit Medical Research Services and Development Company …, priority 1995, dated 2000).
No end group written: not given here.

Experiments:
MIM/8 cells = assay: Adhesion of high metastatic human melanoma cells MIM/8 to Th-1; assay type: cell-based; details: 100 μg/ml Th-1; compared with low metastatic MeWo
Experimental: (§1) Human melanoma cells established from lymph node metastases, being either MeWo cell lines representing diverse metastatic potentials, or a highly metastatic cell line originating from a melanoma patient (Nip et al., J. Clin. Invest. 90:1406-1413 (1992)) were used. High metastatic cells were selected by adhesion to lymph nodes and were designated as MeWoLN161 (also referred to as "61").
(§2) The cells were incubated with 100 μg/ml Th-1 and their adherence was determined as described above. As control, the level of adherence of the cells to BSA coated substrate was determined.

[1] = system: B16-BL6 murine melanoma cells; assay: Inhibition of lung colonization of co-injected B16-BL6 melanoma cells in C57BL/6 mice; assay type: in vivo
Experimental: 1×10^5 cells/0.2 ml/mouse B16-BL6 cells were injected into the lateral tail vein of unanesthetized C57BL/6 mice. The mice were monitored on a daily basis and sacrificed 2 weeks later by cervical dislocation. The animals were necropsied, and the lungs were removed, washed in water, and fixed in Bouin's solution (containing saturated solution of picric acid, 2% glacial acetic acid and 3% formaldehyde). The number of lung nodules was determined under a dissecting microscope.
B16-BL6 cell monolayers in culture were detached for 2 mins. with 0.02% EDTA and resuspended gently to 1×10^5 cells/0.2 ml DMEM. 0.5 mg/1×10^5 cells/0.2 ml of Th-1 was preincubated, at 37° C. for 30 mins, with a half of the cells' cultures prior to injecting mice. A single cell suspension (1×10^5 cells/0.2 ml/mouse), comprising either Th-1 treated or Th-1 untreated melanoma cells was injected slowly into the lateral tail vein of C57BL/6 mice.
Fourteen days after injection, the mice were sacrificed, and their lungs were excised and fixed with 10% formaldehyde and stained with saturated picric acid. The number of surface melanoma colonies was counted visually or with the aid of a dissecting microscope.

B16-BL6 cells [2] = assay: Adhesion of high metastatic B16-BL6 melanoma cells to coated substrate (methylene blue uptake); assay type: cell-based, murine; details: plates coated with 10, 50 or 250 μg/well peptide or 10 μg/ml plasmin-digested thrombin; 37° C., 2 hours
Experimental: (§3) Confluent endothelial cells were dissociated with trypsin-EDTA solution, washed once in growth medium and resuspended in DMEM containing 0.2% bovine serum albumin (BSA). 1.3×10^5 cells/well/0.2 ml DMEM containing 0.2 BSA were added to each protein-coated well and incubated at 37° C. for 2 h. The plates were then washed three times with phosphate batter saline (PBS) and the firmly attached cells were fixed with 3% paraformaldehyde. Fixed cells were then rinsed with 0.1 M borate buffer (pH 8.5), stained for 10 mins. at 22° C. with 0.1 ml/well methylene blue (1% in 0.1 M borate buffer, pH 8.5) and washed four times in borate buffer. This procedure removed practically all non cell-bound dye. Methylene blue which was incorporated by cells was dissolved with 0.1 N HCl (0.2 ml/well) for 40 mins. at 37° C., and determined by its absorbance at 600 nm. Tissue culture plates were coated with either 10, 50 or 250 μg/well of Th-1; with 10 μg/ml of thrombin digested by incubation at 22° C. for 1 hour with plasmin (2 μg/ml); or with 0.2% BSA which served as control (CON). 0.5×10^6 cells/wells of B16-BL6 or B16-F1 cells, which are known to present in vivo high and low pulmonary colonization, respectively, were incubated at 37° C. for 2 hours with the plates coated with the substrates described above. […] The level of cell attachment was evaluated by the methylene blue uptake assay described in I(E) above. […]

rat-aorta ring = assay: Apoptosis in rat aorta ring by TUNEL nuclei staining; assay type: cell-based
Experimental: Apoptosis, or programmed cell death, can be evaluated by DNA fragmentation using a technique based on terminal deoxynucleotidyl transferase (TdT) reactivity with DNA breaks. This histochemical staining was based on the original "TUNEL" method (Gavrieli, et al., J. Cell Biol. 119:493-501 (1992)). Tissue was fixed in buffered formalin; after deparaffinization and hydration, the slide was quenched with H2 O2, in methanol. In order to strip the nuclear proteins, the tissue was preincubated in Tris-HCl and then incubated with proteinase K (20 μg/ml) for 15 minutes and washed. DNA fragments are elongated and labeled with biotinylated poly dUTP, introduced by terminal deoxynucleotidyl transferase. Finally, bound biotin is stained by avidin conjugated peroxidase, developed with nickle-enhanced diaminobenzidine. For positive control (FIG. 12, E) staining serves a preparation that was exposed to DNase digestion (according to Gavieli, et al., supra). […] It is important to emphasize that the RGD derived peptide-Th-1, is capable of inducing in addition to inhibition of micro-vessel sprout formation, cellular signaling of programmed cell death, indicating a possible explanation for the mechanism by which angiogenesis is prevented by Th-1.

MeWoLN161 (61) cells = assay: Adhesion of high metastatic human melanoma cells 61 to Th-1; assay type: cell-based; details: 100 μg/ml Th-1; compared with low metastatic MeWo
Experimental: as §1, §2

B16-BL6 cells [3] = assay: Inhibition of B16-BL6 cell adhesion to modified RGD-exposed thrombin (plasmin-digested); assay type: cell-based, murine
Experimental: Fixed cells were then rinsed with 0.1 M borate buffer (pH 8.5), stained for 10 mins. at 22° C. with 0.1 ml/well methylene blue (1% in 0.1 M borate buffer, pH 8.5) and washed four times in borate buffer. This procedure removed practically all non cell-bound dye. Methylene blue which was incorporated by cells was dissolved with 0.1 N HCl (0.2 ml/well) for 40 mins. at 37° C., and determined by its absorbance at 600 nm. 10 μg/ml of thrombin was digested with 2 μg/ml plasmin by incubation in 22° C. for 1 hour. Tissue culture plates were coated with digested […] by incubation at 4° C. for 2 hours. 1×10^6 B16-BL6 cells were incubated, at 22° C. for 30 mins. with increasing concentrations of Th-1 peptide (20-300 μg) prior to attachment to treated tissue culture plates by incubation at 37° C. for 2 hours. The attached cells were washed 3 times with PBS and fix with 3% formaldehyde. The level of attachment was evaluated by the methylene blue uptake assay described in I(E) above.

B16-F1 cells = assay: Adhesion of low metastatic B16-F1 melanoma cells to coated substrate (methylene blue uptake); assay type: cell-based, murine; details: plates coated with 10, 50 or 250 μg/well peptide or 10 μg/ml plasmin-digested thrombin; 37° C., 2 hours
Experimental: as §3

melanoma cells = details: Humphries et al. (1988); cited from earlier work

## AGYKPDEGKRGDAC [Th-1, I.D. No. 2, residues 178-191 of native thrombin]
MIM/8 cells
  adherence of MIM/8 cells to Th-1 compared to BSA control: significantly higher level of adherence
[1]; 0.5 mg peptide/mouse, co-injected i.v. with B16-BL6 cells, 14 days
  inhibition of lung colonization: Over 90%
[1]; co-injection with B16-BL6 cells, 14 days after injection, vs B16-BL6 alone
  effect on melanotic colonies in the lungs: marked reduction of melanotic colonies
[1]; vs GRGDS of prior art
  potency in inhibiting metastasis of melanoma cells relative to GRGDS peptide: about 20 fold
Rat aorta rings
  concentration giving 50% inhibition of explant formation: ~50 µg/mL
  concentration giving complete inhibition: 100 to 250 µg/mL
Rat aorta rings; 100 μg/ml, vs peptide of similar size without RGD-site
  inhibition of angiogenesis in aorta rings: able to inhibit angiogenesis
Rat aorta rings; 150 μg/ml for 6 days, then fresh medium
  microvessel formation after longer incubation then washout: further increased inhibition
Rat aorta rings; 150 μg/ml, up to 14 days
  microvessel formation with peptide constantly present: complete inhibition
Rat aorta rings; 10-250 μg/ml
  inhibition in sprout formation of the microvessel: dose dependent inhibition
B16-BL6 cells [2]
  adhesion of B16-BL6 cells to the substrate: high, dose dependent adhesion
rat-aorta ring
  concentration giving maximal induction of apoptosis: 250 µg/mL
rat-aorta ring; 10-250 μg/ml
  apoptosis (nuclei staining, TUNEL): dose dependent manner
MeWoLN161 (61) cells
  adherence of 61 cells to Th-1 compared to BSA control: significantly higher level of adherence
B16-BL6 cells [3]; B16-BL6 cells
  concentration at which inhibition of adhesion to modified RGD-exposed thrombin was already obtained: 16 µM
B16-BL6 cells [3]; cells preincubated with 20-300 μg peptide, 22° C., 30 mins
  inhibition of adhesion of B16-BL6 cells to modified RGD-exposed thrombin: inhibited, in a dose depended manner
B16-F1 cells
  adhesion of B16-F1 cells to the substrate: low relatively dose independent adhesion level

## GRGDS
Melanoma cells
  concentration at which inhibition of metastasis was evident: 3 mg/mouse
